Experimental data: patent EP2846814B1, “COMPOSITION FOR THE PREVENTION AND TREATMENT OF VIRAL INFECTIONS CAUSED BY RETROVIRUSES” (Pandalis, Georgios, priority 2012, dated 2013)

Tested on: HIV-1 Lai (subtype B, X4)
Assay: In vitro testing of antiviral activity in the HeLa-P4 assay (β-Galactosidase reporter, luminescence)
Format: cell-based
Method: • Viruses: HIV-1 Lai (subtype B, X4); titer: 8 x 10^4/ml; 20 µl/batch • Cells: HeLa-P4; 2.5 x 10^4/batch
HeLa-P4 cells (from NIH AIDS Research and Reference Program) are a cell line, which was transfected with genes for the human CD4- and […] receptor and which are therefore infectable with HIV-1 (the CXCR4-receptor is expressed on the cells). For quantification of the HIV infection, the cells carry a reporter gene, i.e. β-Galactosidase gen, which is under control of the HIV-1 promoter. After infection, the Tat-protein of HIV-1 transactivates the reporter gene and the degree of infection can be quantified by measurement of the enzyme activity in the lysate of the cells. An inhibition of HIV-1 infection results in a reduction of the β-Galactosidase activity with respect to the infection with viruses without substance addition. The background is defined by measuring the enzyme activity in cells, to which no virus was added. Since in principle a lower infection may also be based on toxic effects of the substances to the cells, in addition to said assay a cytotoxicity assay is also carried out.
The test substances are prepared by adding 1 mg of each extract/concentrate in an Eppendorf vial and dissolving the sample in 1 ml of RPMI medium. The solution is filtered under sterile conditions and placed in a new Eppendorf vial. As a positive control, the T20-peptide (a known HIV-1 entry inhibitor; Enfuvirtide) is used. Dilution series of the test compounds alone, combinations thereof as well as of T20 in cell culture medium were prepared, wherein the samples have concentrations of 5, 10, 25, and 50 µg/ml for Marrubium vulgare, Cistus incanus and Ribes nigrum and combinations of extracts of Marrubium vulgare and Cistus incanus, and Marrubium vulgare and Ribes nigrum. For Marrubium vulgare, Borago officinalis and combinations of extracts of Marrubium vulgare and Borago officinalis concentrations of 5 and 50 µg/ml were tested. The given concentrations in the combinations relate to the concentration of each single extract, e.g. a concentration of 5 µg/ml means 5 µg/ml of Marrubium vulgare and 5 µg/ml of the extract of the other plant (Cistus incanus, Ribes nigrum, Borago officinalis).
The positive control T20 is used in concentrations of 100 and 200 nM. Each of the substance concentrations was tested in triplicates.
Day 1: Each of the substance dilutions of Marrubium vulgare (5, 10, 25, 50, […]), Ribes nigrum (5, 10, 25, and 50 µg/ml), Cistus incanus (5, 10, 25, and 50 µg/ml) and Borago officinalis (5 and 50 µg/m) is mixed with 20 µl of the HIV-1 Lai virus stock (titer 8x10^4/ml), vortexed, and pre-incubated at 37 °C for 30 minutes. The virus/substance mixture is added to 2.5 x 10^4 HeLa-P4 cells corresponding to an m.o.i. of 0.06, vortexed and incubated for 2 h at 37 °C. Afterwards the supernatant is removed, the cells are washed with medium and 100 µl of fresh medium is added. The cells are incubated for 2 days at 37 °C.
Accordingly, each of the substance dilutions of combinations of Marrubium vulgare and Ribes nigrum (5, 10, 25, and 50 µg/ml), Marrubium vulgare and Cistus incanus (5, 10, 25, and 50 µg/ml) and Marrubium vulgare and Borago officinalis (5 and 50 µg/ml) is mixed with 20 µl of the HIV-1 Lai virus stock (titer 8x10^4/ml), vortexed, and pre-incubated at 37 °C for 30 minutes. The virus/substance mixture is added to 2.5 x 10^4 HeLa-P4 cells, vortexed and incubated for 2 h at 37 °C. Afterwards the supernatant is removed, the cells are washed with medium and 100 µl of fresh medium is added. The cells are incubated for 2 days at 37 °C.
Day 3: The supernatant is removed, the cells are washed with 100 µl of medium and lysed in 50 µl of lysis buffer per each well (2.5 ml glycerol; 1.25 ml MES-Tris, 25 µl 1 M DTT, 250 µl Triton X100, H2O ad 25 ml) for 10 minutes on ice and removed at -80 °C. […]

Enfuvirtide [T20]
LU (luminescence units) Average (100 nM): 16893 LU | LU (luminescence units) Trial 1 (100 nM): 23855 LU | LU (luminescence units) Trial 2 (100 nM): 13888 LU | LU (luminescence units) Trial 3 (100 nM): 12937 LU | LU (luminescence units) Average (200 nM): 8802 LU | LU (luminescence units) Trial 1 (200 nM): 9407 LU | LU (luminescence units) Trial 2 (200 nM): 7531 LU | LU (luminescence units) Trial 3 (200 nM): 9468 LU
